Source: patent publication US20040248950A1, “Apo ai expression accelerating agent” (priority 2004, published 2004)

What was measured:
[1] = system: promoter region of the gene encoding human apoAI; assay: Activity to enhance the production of human apoAI: apoAI promoter-luciferase reporter assay in HepG2 cells; assay type: cell-based; settings: minimum effective dose: concentration that intensified luciferase activity twice compared to control, 24 hours incubation, 0 to 10 μg/mL, read-out: MED
Procedure: Activity to Enhance the Production of Human apoAI
The promoter region of the gene encoding human apoAI was isolated and ligated upstream the structure gene of firefly luciferase to construct a reporter plasmid. The reporter plasmid and a marker plasmid conferring the neomycin resistance were co-infected to cell lines derived from human hepatoma, HepG2 cells, and the cell lines were incubated in a selection medium comprising DMEM medium containing 10% fetal calf serum supplemented with G418 (Final concentration: 0.7 mg/mL, Gibco) to give established strains that stably express the reporter molecule. The strains were seeded to a 96-well culture plates at a density of 50,000 cells per well, and incubated for 48 hours at 37° C. under 5% carbon dioxide. Then, a solution of the compounds according to the invention in DMSO was added to the wells at a final concentration of 0 to 10 μg/mL. After further incubation for 24 hours, the cells were added with a luciferase assay reagent (Piccagene LT 7.5 registered trade mark, Toyo Ink, KK), and the luciferase activity was determined using a luminometer (MicroBetaTM TRILUX, 1 sec/well, Wallac). The concentration of the compounds, which intensified the luciferase activity twice compared to that of control (DMSO without any compound of the invention added) was set as the minimal effective dose (MED).

| SMILES | EC (2-fold luciferase activity) [1] [µM] | melting point [°C] |
| --- | --- | --- |
| c1ccc(-c2cn(-c3ccccc3)nn2)cc1 [Compound 123TA14-2] | 0.59 |  |
| COc1ccc(-c2nc(-c3ccccc3)no2)cc1 [Compound 124OD35-12, 5-(4-Methoxyphenyl)-3-phenyl-1,2,4-oxadiazole] | 0.07 |  |
| COc1ccc(-c2nc(-c3ccncc3)no2)cc1 [Compound 124OD35-13] | 0.7 |  |
| c1ccc(-c2nc(-c3ccc(-c4csnn4)cc3)no2)cc1 [Compound 124OD35-15] | 0.18 |  |
| c1ccc(Nc2nc(-c3ccccc3)ns2)cc1 [Compound 124TD35-6] | 0.93 |  |
| CSc1ccc(-c2nnc(-c3ccccc3)o2)cc1 [Compound 134OD25-14] | 0.56 | 120 to 122 |
| CN(C)c1ccc(-c2nnc(-c3ccccc3)o2)cc1 [Compound 134OD25-15, 2-(4-Dimethylaminophenyl)-5-phenyl-1,3,4-oxadiazole] | 0.27 | 135 to 140 |
| C(=C\c1nnc(-c2ccccc2)o1)/c1ccco1 [Compound 134OD25-23, 2-[2-(2-Furyl)vinyl]-5-[1,3,4]-oxadiazole] | 0.82 | 127 to 130 |
| c1ccc(-c2nnc(-c3cc4ccccc4o3)o2)cc1 [Compound 134OD25-28] | 1.1 | 148 to 149 |
| COc1cccc(-c2nnc(-c3ccoc3)o2)c1 [Compound 134OD25-32, 2-(3-Furyl)-5-(3-methoxyphenyl)-[1,3,4]-oxadiazole] | 2.8 | 70 to 71 |
| CC(C)Oc1cccc(-c2nnc(-c3ccoc3)o2)c1 [Compound 134OD25-34] | 1.5 |  |
| Cc1cccc(-c2nnc(-c3cccc(C)c3)o2)c1 [Compound 134OD25-40, 2,5-Bis (3-tolyl)-1,3,4-oxadiazole] | 0.17 | 82 to 83 |
| c1ccc(-c2nnc(-c3ccccn3)o2)cc1 [Compound 134OD25-46, 2-(2-Pyridyl)-5-phenyl-1,3,4-oxadiazole] | 0.37 |  |
| COc1cccc(-c2nnc(N3CCOCC3)s2)c1 [Compound 134TD25-1] | 0.89 |  |
| CC(C)Oc1cccc(-c2nnc(-c3ccoc3)s2)c1 [Compound 134TD25-4] | 0.58 |  |
| Cc1ccc(-c2nnc(-c3ccco3)s2)cc1 [Compound 134TD25-5, 2-(2-Furyl)-5-p-tolyl-[1,3,4]-thiadiazole] | 0.98 | 110 to 113 |

| SMILES | EC (2-fold luciferase activity) [1] [µM] | melting point [°C] |
| --- | --- | --- |
| c1ccc(-c2ccc(-c3ccccc3)o2)cc1 [Compound F25-10] | 2.5 |  |
| c1ccc(-c2cc(-c3ccccc3)on2)cc1 [IX35-1] | 0.75 |  |
| COc1cccc(-c2cc(-c3ccoc3)on2)c1 [IX35-9, 5-(Furan-3-yl)-3-(3-methoxyphenyl)-isoxazole] | 0.53 | 36 to 37 |
| COc1ccc(-c2nc(-c3ccccc3)co2)cc1 [OX24-5] | 0.32 |  |
| c1ccc(-c2coc(-c3ccccc3)n2)cc1 [OX24-8] | 2.9 |  |
| COc1ccc(-c2cc(-c3ccc(OC)cc3)n(C)n2)cc1 [PZ35-4, 3,5-Di(4-methoxyphenyl)-1-methylpyrazole] | 0.41 |  |
| c1ccc(-c2cc(-c3ccccn3)[nH]n2)nc1 [PZ35-5] | 1.5 |  |
| Cc1ccc(-c2csc(-c3ccccc3)n2)cc1 [TZ24-3] | 0.45 |  |
| COc1ccc(-c2nc(-c3ccccc3)cs2)cc1 [TZ24-5, 2-(4-Methoxyphenyl)-4-phenylthiazole] | 3.7 |  |
| COc1ccc(-c2nc(-c3ccco3)cs2)cc1 [TZ24-6, 4-(2-Furyl)-2-(4-methoxyphenyl)thiazole] | 1.2 |  |
| COc1ccc(-c2nc(-c3ccccn3)cs2)cc1 [TZ24-11] | 1.2 |  |
| Cc1ccc(-n2nnc(-c3ccc(Cl)cc3)n2)cc1 [TZ-1] | 0.33 |  |
| Cc1ccc(-c2nnn(-c3ccc(Cl)cc3)n2)cc1 [TZ-2] | 0.42 |  |
| Cc1ccc(-n2nnc(-c3ccccc3)n2)cc1 [TZ-3] | 0.2 |  |
| Clc1ccc(-c2nnn(-c3ccc(Cl)cc3)n2)cc1 [TZ-4] | 0.53 |  |
| COc1ccc(-n2nnc(-c3ccccc3)n2)cc1 [TZ-7] | 0.22 |  |
